We go through 10 compounds from patent publication US9085603B2, “Progesterone receptor antagonists” (Bayer Intellectual Property GmbH, priority 2010, dated 2015).

Data set [1] deals with T1, human progesterone receptor A (Homo sapiens, UniProt P06401).
T1 construct: expressed in transfected cells; host or cells: SK-N-MC human neuroblastoma cells, stably transfected with pRChPR-A-neo and pMMTV-LUC
T1 sequence (P06401 1-769 isoform P06401-2): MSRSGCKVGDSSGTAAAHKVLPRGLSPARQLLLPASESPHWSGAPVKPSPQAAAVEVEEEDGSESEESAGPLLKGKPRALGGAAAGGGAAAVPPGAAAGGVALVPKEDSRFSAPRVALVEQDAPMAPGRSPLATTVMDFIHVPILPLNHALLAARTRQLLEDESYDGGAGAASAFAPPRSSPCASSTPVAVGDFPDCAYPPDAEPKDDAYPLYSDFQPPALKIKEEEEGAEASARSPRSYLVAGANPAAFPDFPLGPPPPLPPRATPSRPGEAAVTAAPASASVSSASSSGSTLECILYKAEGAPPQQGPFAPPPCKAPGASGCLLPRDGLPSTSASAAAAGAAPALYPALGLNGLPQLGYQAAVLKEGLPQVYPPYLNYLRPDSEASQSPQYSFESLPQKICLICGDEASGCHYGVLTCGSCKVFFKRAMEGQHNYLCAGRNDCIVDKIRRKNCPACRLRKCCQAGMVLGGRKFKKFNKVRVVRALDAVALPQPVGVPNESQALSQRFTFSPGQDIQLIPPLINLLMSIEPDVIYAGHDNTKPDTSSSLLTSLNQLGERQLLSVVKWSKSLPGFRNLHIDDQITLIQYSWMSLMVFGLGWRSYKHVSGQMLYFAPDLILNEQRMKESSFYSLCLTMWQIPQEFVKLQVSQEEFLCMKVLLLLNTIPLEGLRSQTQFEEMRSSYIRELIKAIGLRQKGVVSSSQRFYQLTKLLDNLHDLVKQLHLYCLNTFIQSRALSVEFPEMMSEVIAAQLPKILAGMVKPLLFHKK
Briefly: Progesterone receptor antagonistic effect in stably transfected SK-N-MC cells, MTV-LUC reporter (PR-A). Type of data set: cell-based. The note with it: antagonism of 0.1 nmol/l promegestone, luciferase reporter, 24 hours. The method in brief: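 Stably transfected SK-N-MC cells with PR-A or PR-B and MMTV-LUC reporter, treated 24 h with 0.1 nmol/l promegestone plus test compound at 0.01 nmol/l–1 μmol/l. Luciferase in cell lysates read as RLU; values given as percentage efficacy and IC50.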

A further data set has as its system pregnant rats. Kind of data set: Abortive test on female rats (termination of early pregnancy). As to conditions: for Abortion rate: d5-d7 p.c., autopsy d9 p.c.; for In vivo properties in preclinical tests: not further specified. It is filed as in vivo, rat. As to the method:
The antagonistic effect of the compounds according to the invention was tested on pregnant rats (6 rats per group) on day (d) 5 to 7 post coitum (p.c.) under conventional keeping and feeding conditions.
After successful pairing, the pregnant animals (presence of sperm in the vaginal smear on day 1 of the pregnancy=d1 p.c.) were randomized and divided into the treatment group and the control group. The animals were then given, subcutaneously or orally, in each case 0.15; 0.5; 1.5 or 5 mg/kg of the test compound or […] of vehicle (benzyl benzoate/ricinus oil: 1+4 [v/v]) daily from day 5 to day 7 (d5-d7 p.c.).
The autopsy was carried out on day 9 (d9 p.c.). As the parameter of the progesterone receptor antagonistic effect, the uterus was investigated with regard to the presence of nidation sites. Here, the complete lack of nidation sites, but also the presence of pathological, haemmorhagic or otherwise abnormal nidation sites, on day 9 (d9 p.c.) was evaluated as an abortion.

Data set [2] addresses T2, human progesterone receptor B (Homo sapiens, UniProt P06401).
T2 construct: expressed in transfected cells; host or cells: SK-N-MC human neuroblastoma cells, stably transfected with pRChPR-B-neo and pMMTV-LUC
T2 sequence (P06401 1-933): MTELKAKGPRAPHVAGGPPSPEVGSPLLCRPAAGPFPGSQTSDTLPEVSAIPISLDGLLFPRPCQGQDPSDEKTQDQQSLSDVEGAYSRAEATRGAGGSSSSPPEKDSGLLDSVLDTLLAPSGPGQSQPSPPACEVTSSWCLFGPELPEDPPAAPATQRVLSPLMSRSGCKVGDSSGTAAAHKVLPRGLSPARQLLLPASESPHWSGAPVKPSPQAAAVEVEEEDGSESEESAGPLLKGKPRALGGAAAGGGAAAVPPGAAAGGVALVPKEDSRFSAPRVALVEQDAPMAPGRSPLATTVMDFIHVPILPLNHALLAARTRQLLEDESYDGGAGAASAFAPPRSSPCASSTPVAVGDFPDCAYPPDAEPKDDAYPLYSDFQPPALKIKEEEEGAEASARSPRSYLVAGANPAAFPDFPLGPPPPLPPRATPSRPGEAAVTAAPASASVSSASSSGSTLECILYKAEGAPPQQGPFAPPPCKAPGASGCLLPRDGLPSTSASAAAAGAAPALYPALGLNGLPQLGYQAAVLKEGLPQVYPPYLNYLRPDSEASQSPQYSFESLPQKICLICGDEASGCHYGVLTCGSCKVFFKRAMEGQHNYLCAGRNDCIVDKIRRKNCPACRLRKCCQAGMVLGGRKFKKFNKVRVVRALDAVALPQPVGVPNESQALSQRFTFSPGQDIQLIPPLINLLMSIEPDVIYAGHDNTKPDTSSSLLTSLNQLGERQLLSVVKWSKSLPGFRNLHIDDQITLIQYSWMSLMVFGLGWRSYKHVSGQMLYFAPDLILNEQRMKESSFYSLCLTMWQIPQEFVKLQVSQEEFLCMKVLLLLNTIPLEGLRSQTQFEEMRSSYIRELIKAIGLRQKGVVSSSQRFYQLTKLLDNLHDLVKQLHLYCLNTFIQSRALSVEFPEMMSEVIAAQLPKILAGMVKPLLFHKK
Briefly: Progesterone receptor antagonistic effect in stably transfected SK-N-MC cells, MTV-LUC reporter (PR-B). It is filed as cell-based. As to conditions: antagonism of 0.1 nmol/l promegestone, luciferase reporter, 24 hours. The method, then: Progesterone Receptor Antagonistic Effect in Stable Transfectants of Human Neuroblastoma Cells (SK-N-MC cells) with the Human Progesterone A or Progesterone B Receptor and a MTV-LUC Reporter Construct
SK-N-MC cells (human neuroblastoma cells), which have been stably transfected with plasmids which express the human progesterone receptor B (pRChPR-B-neo) or the human progesterone receptor A (pRChPR-A-neo) and a reporter construct (pMMTV-LUC), were incubated for 24 hours either in the absence (negative control) or in the presence of increasing amounts of the particular test compound (0.01 nmol/l, 0.1 nmol/l, 1 nmol/l, 10 nmol/l, 100 nmol/l and 1 μmol/l) in order to determine the agonistic efficacy. As a positive control of the reporter gene induction, the cells were treated with the synthetic gestagen promegestone (0.01 nmol/l, 0.1 nmol/l, 1 nmol/l, 10 nmol/l, 100 nmol/l and 1 μmol/l). To determine the antagonistic activity, the cells were treated with 0.1 nmol/l of promegestone and additionally with increasing amounts of the particular test compound (0.01 nmol/l, 0.1 nmol/l, 1 nmol/l, 10 nmol/l, 100 nmol/l and 1 μmol/l). The activity of the reporter gene LUC (LUC=luciferase) was determined in the cell lysates and measured as RLU (relative light units). All measurement values are given as percentage efficacy and as EC50 or IC50 concentrations.
(In a reporter assay the amount or activity of a reporter protein is the signal.)

The conditions of data set [3]: cited from earlier work.
The subject of the next data set is uterus fibroids. The note with it: several clinical studies; cited from earlier work.

In general, IC50 refers to the concentration at which inhibition is half-maximal. Read a high IC50 as lower potency. Regarding `CC(=O)N1CCN(Cc2ccc([C@H]3C[C@@]4(C)C(CC[C@@]4(O)C(F)(F)C(F)(F)F)C4CCC5=CC(=O)CCC5=C43)cc2)CC1` (stereo partly drawn) [Example 11, (11β,17β)-11-{4-[(4-Acetylpiperazin-1-yl)methyl]phenyl}-17-hydroxy-17-(pentafluoroethyl)estra-4,9-dien-3-one], the concentration for half-maximal inhibition (IC50) in data set [1] and in data set [2] was 0.095 nM throughout. The Abortion rate in the data set with pregnant rats (daily dose 0.5 mg/kg p.o.), with pregnant rats (daily dose 1.5 mg/kg p.o.) and with pregnant rats (daily dose 5.0 mg/kg p.o.) was 100% in each case. Besides, the “In vivo properties in preclinical tests” value in the data set on pregnant rats is listed as “exceptional in vivo properties”.

As for `C[C@]12C[C@H](c3ccc(CN4CCN(S(C)(=O)=O)CC4)cc3)C3=C4CCC(=O)C=C4CC[C@H]3[C@@H]1CC[C@@]2(O)C(F)(F)C(F)(F)F` [Example 12, (11β,17β)-17-Hydroxy-11-(4-{[4-(methylsulphonyl)piperazin-1-yl]methyl}phenyl)-17-(pentafluoroethyl)estra-4,9-dien-3-one], the figures for the IC50 in data set [1] and in data set [2] were 0.17 nM and 0.1 nM, respectively. In addition, the Abortion rate in the data set on pregnant rats (daily dose 0.5 mg/kg p.o.), with pregnant rats (daily dose 1.5 mg/kg p.o.) and in the data set with pregnant rats (daily dose 5.0 mg/kg p.o.) was 100% each time. Moreover, in the data set with pregnant rats, the “In vivo properties in preclinical tests” value is recorded as “exceptional in vivo properties”.

Consider `C[C@]12C[C@H](c3ccc(CN4CCN(C(=O)c5ccccc5)CC4)cc3)C3=C4CCC(=O)C=C4CCC3C1CC[C@@]2(O)C(F)(F)C(F)(F)F` (stereo partly drawn) [Example 13, (11β,17β)-11-{4-[(4-Benzoylpiperazin-1-yl)methyl]phenyl}-17-hydroxy-17-(Pentafluoroethyl)estra-4,9-dien-3-one], for which the values for the IC50 in data set [1] and in data set [2] were 0.092 nM and 0.1 nM, respectively.

`CC(C)(C)C(=O)N1CCN(Cc2ccc([C@H]3C[C@@]4(C)C(CC[C@@]4(O)C(F)(F)C(F)(F)F)C4CCC5=CC(=O)CCC5=C43)cc2)CC1` (stereo partly drawn) [Example 14, (11β,17β)-11-(4-{[4-(2,2-Dimethylpropanoyl)piperazin-1-yl]methyl}phenyl)-17-hydroxy-17-(pentafluoroethyl)estra-4,9-dien-3-one]: the half-inhibitory concentration (IC50) in data set [1] was found to be 0.1 nM; in data set [2], 0.094 nM.

On to `C[C@]12C[C@H](c3ccc(CN4CCC(C(=O)O)CC4)cc3)C3=C4CCC(=O)C=C4CC[C@H]3[C@@H]1CC[C@@]2(O)C(F)(F)C(F)(F)F` [Example 15, 1-{4-[(11β,17β)-17-hydroxy-3-oxo-17-(pentafluoroethyl)estra-4,9-dien-11-yl]benzyl}piperidine-4-carboxylic acid], for which the IC50 came to 53 nM in data set [1] and 60 nM in data set [2].

With `C[C@]12C[C@H](c3ccc(CN4CCCNCC4)cc3)C3=C4CCC(=O)C=C4CCC3C1CC[C@@]2(O)C(F)(F)C(F)(F)F` (stereo partly drawn) [Example 16, (11β,17β)-11-[4-(1,4-Diazepan-1-ylmethyl)phenyl]-17-hydroxy-17-(pentafluoroethyl)estra-4,9-dien-3-one], the IC50 in data set [1] turned out to be 2.7 nM; in data set [2], 2.8 nM.

As for `CC(=O)N1CCCN(Cc2ccc([C@H]3C[C@@]4(C)C(CC[C@@]4(O)C(F)(F)C(F)(F)F)C4CCC5=CC(=O)CCC5=C43)cc2)CC1` (stereo partly drawn) [Example 17, (11β,17β)-11-{4-[(4-Acetyl-1,4-diazepan-1-yl)methyl]phenyl}-17-hydroxy-17-(pentafluoroethyl)estra-4,9-dien-3-one], the results for the IC50 in data set [1] and in data set [2] were 0.56 nM and 0.57 nM, respectively.

As for `CN(C)c1ccc([C@H]2C[C@]3(C)[C@@H](CC[C@]3(O)CCCO)[C@@H]3CCC4=CC(=O)CCC4=C32)cc1` [Onapristone, onapristone], in data set [3] (clinical studies, some patients), the Liver function tests result is “abnormalities in liver function tests were observed”.

With `CC#C[C@]1(O)CC[C@H]2[C@@H]3CCC4=CC(=O)CCC4=C3[C@@H](c3ccc(N(C)C)cc3)C[C@@]21C` [mifepristone], in the data set on uterus fibroids, the “Effect on uterus fibroids” value is on record as “significant shrinkage of uterus fibroids” and the “Symptoms associated with uterus fibroids” value is recorded as “significant reduction in the symptoms”.

With `COCC(=O)[C@@]1(OC(C)=O)CC[C@H]2[C@@H]3CCC4=CC(=O)CCC4=C3[C@@H](c3ccc(N(C)C)cc3)C[C@@]21C` [proellex], in the data set on uterus fibroids, the “Effect on uterus fibroids” value is “significant shrinkage of uterus fibroids” and the “Symptoms associated with uterus fibroids” value is recorded as “significant reduction in the symptoms”. Besides, the Liver enzymes result in data set [3] (relatively high dosages) is “induction of liver enzymes”.
